Assay results reported in ChEMBL document CHEMBL1130312, “Synthesis and receptor binding affinity of conformationally restricted retinoic acid analogues” (Bioorg Med Chem Lett, 1997).

Tests used:
[1] = target: T1, Retinoic acid receptor beta (Homo sapiens, UniProt P10826); experiment: Binding affinity towards cRAR-beta-2 receptor by displacing 1.1 nM 3[H]-9-cis-RA; IA = Inactive
T1 sequence (P10826 whole entry): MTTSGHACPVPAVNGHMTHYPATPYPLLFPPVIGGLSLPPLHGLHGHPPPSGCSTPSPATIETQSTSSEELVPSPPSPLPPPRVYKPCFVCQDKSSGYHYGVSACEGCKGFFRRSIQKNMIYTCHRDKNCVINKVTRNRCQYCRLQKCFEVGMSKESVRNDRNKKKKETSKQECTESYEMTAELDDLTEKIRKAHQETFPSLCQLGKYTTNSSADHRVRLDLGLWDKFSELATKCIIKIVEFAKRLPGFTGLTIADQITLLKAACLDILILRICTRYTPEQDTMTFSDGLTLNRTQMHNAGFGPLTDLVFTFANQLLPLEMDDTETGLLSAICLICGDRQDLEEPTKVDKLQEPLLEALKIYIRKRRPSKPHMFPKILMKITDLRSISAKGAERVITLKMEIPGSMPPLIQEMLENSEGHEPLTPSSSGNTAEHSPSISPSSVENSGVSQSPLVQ

[2] = target: T2, Retinoic acid receptor RXR-gamma (Homo sapiens, UniProt P48443); experiment: Binding affinity towards Retinoic acid receptor RXR-gamma by displacing 3.4 nM 3[H]-9-cis-RA; IA = Inactive
T2 sequence (P48443 whole entry): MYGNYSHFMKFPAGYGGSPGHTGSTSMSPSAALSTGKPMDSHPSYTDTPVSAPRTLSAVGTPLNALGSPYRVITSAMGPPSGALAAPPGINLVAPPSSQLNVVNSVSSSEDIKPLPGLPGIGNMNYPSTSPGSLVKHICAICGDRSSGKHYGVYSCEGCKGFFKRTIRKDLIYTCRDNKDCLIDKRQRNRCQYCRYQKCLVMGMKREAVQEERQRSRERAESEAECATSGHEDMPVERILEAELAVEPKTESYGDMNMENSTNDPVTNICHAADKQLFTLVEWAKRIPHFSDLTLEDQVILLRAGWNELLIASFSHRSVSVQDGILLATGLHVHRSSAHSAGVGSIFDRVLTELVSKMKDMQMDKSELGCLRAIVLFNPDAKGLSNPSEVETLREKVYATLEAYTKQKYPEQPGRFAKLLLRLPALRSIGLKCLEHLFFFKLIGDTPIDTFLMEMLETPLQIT

[3] = target: T1, Retinoic acid receptor beta; experiment: Binding affinity towards cRAR-beta-2 receptor by displacing 0.82 nM 3[H]-all-trans-RA; IA = Inactive
[4] = target: T2, Retinoic acid receptor RXR-gamma; experiment: Binding affinity towards Retinoic acid receptor RXR-gamma by displacing 3.4 nM 3[H]-9-cis-RA; No binding competition
[5] = target: T2, Retinoic acid receptor RXR-gamma; experiment: Binding affinity towards Retinoic acid receptor RXR-gamma by displacing 3.4 nM 3[H]-9-cis-RA
[6] = target: T3, Retinoic acid receptor alpha (Homo sapiens, UniProt P10276); experiment: Binding affinity towards human Retinoic acid receptor alpha
T3 sequence (P10276 whole entry): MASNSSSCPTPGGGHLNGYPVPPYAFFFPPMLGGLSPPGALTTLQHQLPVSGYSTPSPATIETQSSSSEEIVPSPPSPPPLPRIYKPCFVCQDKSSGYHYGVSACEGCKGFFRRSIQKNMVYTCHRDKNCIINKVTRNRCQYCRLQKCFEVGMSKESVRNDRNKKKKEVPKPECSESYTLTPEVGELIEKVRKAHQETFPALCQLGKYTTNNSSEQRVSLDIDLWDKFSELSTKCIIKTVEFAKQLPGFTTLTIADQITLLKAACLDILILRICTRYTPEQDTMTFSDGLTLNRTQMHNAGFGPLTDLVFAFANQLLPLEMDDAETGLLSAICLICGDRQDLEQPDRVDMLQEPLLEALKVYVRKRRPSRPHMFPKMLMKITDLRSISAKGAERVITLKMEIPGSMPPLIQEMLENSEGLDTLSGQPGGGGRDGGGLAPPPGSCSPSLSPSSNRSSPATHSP

[7] = target: T4, Retinoic acid receptor gamma (Homo sapiens, UniProt P13631); experiment: Binding affinity towards human Retinoic acid receptor gamma
T4 sequence (P13631 whole entry): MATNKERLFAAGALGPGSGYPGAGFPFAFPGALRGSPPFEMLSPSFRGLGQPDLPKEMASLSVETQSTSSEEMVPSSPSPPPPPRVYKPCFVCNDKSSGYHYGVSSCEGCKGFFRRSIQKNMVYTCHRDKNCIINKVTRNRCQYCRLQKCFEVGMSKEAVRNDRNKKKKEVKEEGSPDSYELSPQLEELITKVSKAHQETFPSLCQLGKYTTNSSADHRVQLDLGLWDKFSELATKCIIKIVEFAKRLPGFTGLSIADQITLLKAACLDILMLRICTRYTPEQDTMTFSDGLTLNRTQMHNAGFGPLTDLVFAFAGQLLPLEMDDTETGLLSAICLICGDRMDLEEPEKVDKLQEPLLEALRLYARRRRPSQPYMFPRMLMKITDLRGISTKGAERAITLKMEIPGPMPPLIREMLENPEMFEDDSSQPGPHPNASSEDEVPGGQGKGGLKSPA

[8] = target: T1, Retinoic acid receptor beta; experiment: Binding affinity towards cRARbeta2 receptor by displacing 0.82 nM 3[H]all-trans-RA
[9] = target: T1, Retinoic acid receptor beta; experiment: Binding affinity towards cRAR-beta-2 receptor by displacing 1.1 nM 3[H]-9-cis-RA

| Ki [1] | Ki [2] | Ki [3] | Ki [5] [µM] | Ki [6] [µM] | Ki [7] [µM] | Ki [8] [µM] | Ki [9] [µM] | SMILES | Ki [4] |
| --- | --- | --- | --- | --- | --- | --- | --- | --- | --- |
| Not Active | Not Active | Not Active | – | – | – | – | – | CCOC(=O)[C@H]1C[C@@]1(C)/C=C/C=C(C)/C=C/C1=C(C)CCCC1(C)C | – |
| Not Active | Not Active | Not Active | – | – | – | – | – | CCOC(=O)[C@@H]1C[C@@]1(C)/C=C/C=C(C)/C=C/C1=C(C)CCCC1(C)C | – |
| – | – | – | – | – | – | – | – | C/C(=C\c1ccc(C(=O)O)cc1)c1ccc2c(c1)C(C)(C)CCC2(C)C | Not Active |
| – | – | – | > 2.8 | > 4 | > 4 | > 1.1 | > 1.2 | CC(=C/C(=O)O)/C=C/C1CC1/C=C/C1=CC(C)(C)CCC1(C)C (stereo not drawn) | – |
| – | – | – | > 7.2 | 0.0031 | 0.032 | 0.011 | 0.013 | CC(/C=C/C1CC1/C=C/C1=CC(C)(C)CCC1(C)C)=C\C(=O)O (stereo not drawn) | – |
| – | – | – | – | – | – | – | – | CC1=C(/C=C/C(C)=C/C=C/C(C)=C/C(=O)O)C(C)(C)CCC1 [TRETINOIN] | Not Active |
